What was measured:
[1] = tested on: Puccinia recondita f. Sp. Tritici; assay: Fungicidal activity against Puccinia recondita f. sp. tritici / wheat / leaf disc preventative (brown rust); assay type: in vivo; settings: foliar, 200 ppm in the applied formulation, wheat leaf segments, preventative, compared to untreated control leaf disks, read-out: disease control
Procedure, shortened: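 Preventative leaf-segment test, wheat cv. Kanzler on water agar. Spray compound at 200 ppm, inoculate with spores 1 day later; 19° C., 75% rh, 12/12 h light. Read-out: % disease control vs untreated, 7 to 9 days after application.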

[2] = tested on: Puccinia recondita f. Sp. Tritici; assay: Fungicidal activity against Puccinia recondita f. sp. tritici / wheat / leaf disc curative (brown rust); assay type: in vivo; settings: foliar, 24 h, 200 ppm in the applied formulation, wheat leaf segments, curative (applied 1 day after inoculation), compared to untreated control leaf disks, read-out: disease control
Procedure, shortened: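 Scoring is percent disease control relative to untreated segments, made 6 to 8 days after treatment. Wheat (cv. Kanzler) leaf segments received the formulated, water-diluted compound one day post-inoculation with spores, having been kept dark at 19° C and 75% RH, then incubated under 12 h light/12 h dark at the same temperature and humidity.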

Phakopsora Pachyrhizi = assay: Fungicidal activity against Phakopsora pachyrhizi / soybean / leaf disc preventative (Asian soybean rust); assay type: in vivo; settings: foliar, 200 ppm in the applied formulation, soybean leaf disks, compared to untreated control leaf disks, read-out: disease control
Procedure, shortened: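 Preventative soybean leaf-disc test: discs on water agar sprayed with diluted formulated compound, inoculated one day later with spores on the lower surface. Held 24–36 h dark at 20°C, 75% rh, then 12 h light/day; percent disease control versus untreated discs scored 12–14 days after application.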

[3] = tested on: Glomerella lagenarium (Colletotrichum lagenarium); assay: Fungicidal activity against Glomerella lagenarium (Colletotrichum lagenarium) liquid culture / cucumber / preventative (anthracnose); assay type: cell-based; settings: Colletotrichum orbiculare; 20 ppm in the applied formulation; liquid culture (PDB), growth inhibition measured photometrically after 3 to 4 days; compared to untreated control; read-out: disease control
Procedure, shortened: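 Photometric read-out of fungal growth after 2–7 days, expressed as percent antifungal activity versus untreated check. Cryo-stored conidia in PDB; compound at 20 ppm; dark, 24 °C, 96% RH.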

CCN(Cc1ccc(-c2noc(C(F)(F)F)n2)cc1)C(=O)NC [Compound 3.52, 1-ethyl-3-methyl-1-[[4-[5-(trifluoromethyl)-1,2,4-oxadiazol-3-yl]phenyl]methyl]urea]
≥ 80%: pest or weed control at 200 ppm [1] | pest or weed control at 200 ppm [2] | pest or weed control at 200 ppm (Phakopsora Pachyrhizi) | inhibition of growth at 20 ppm [3]

CON(Cc1ccc(-c2noc(C(F)(F)F)n2)cc1)C(=O)C(C)(C)C [Compound 1.42, N-methoxy-2,2-dimethyl-N-[[4-[5-(trifluoromethyl)-1,2,4-oxadiazol-3-yl]phenyl]methyl]-propanamide]
≥ 80%: pest or weed control at 200 ppm [1] | pest or weed control at 200 ppm [2] | pest or weed control at 200 ppm (Phakopsora Pachyrhizi) | inhibition of growth at 20 ppm [3]

CCC(C)N(Cc1ccc(-c2noc(C(F)(F)F)n2)cc1)C(=O)C(C)OC (stereo not shown) [Compound 1.402, 2-methoxy-N-sec-butyl-N-[[4-(5-(trifluoromethyl)-1,2,4-oxadiazol-3-yl]phenyl]methyl]-propanamide]
≥ 80%: pest or weed control at 200 ppm [1] | pest or weed control at 200 ppm [2] | pest or weed control at 200 ppm (Phakopsora Pachyrhizi) | inhibition of growth at 20 ppm [3]

CC(=O)N(O)Cc1ccc(-c2noc(C(F)(F)F)n2)cc1 [Compound 1.773, N-hydroxy-N-[[4-[5-(trifluoromethyl)-1,2,4-oxadiazol-3-yl]phenyl]methyl]-acetamide]
≥ 80%: pest or weed control at 200 ppm [1] | pest or weed control at 200 ppm [2] | pest or weed control at 200 ppm (Phakopsora Pachyrhizi) | inhibition of growth at 20 ppm [3]

CC(C)N(Cc1ccc(-c2noc(C(F)(F)F)n2)cc1)C(=O)C1(C#N)CC1 [Compound 1.684, 1 cyano-N-isopropyl-N-[[4-[5-(trifluoromethyl)-1,2,4-oxadiazol-3-yl]phenyl]methyl]-cyclopropane-carboxamide]
≥ 80%: pest or weed control at 200 ppm [1] | pest or weed control at 200 ppm [2] | pest or weed control at 200 ppm (Phakopsora Pachyrhizi) | inhibition of growth at 20 ppm [3]

C#CCN(Cc1ccc(-c2noc(C(F)(F)F)n2)cc1)C(=O)C1CC1(C)C (stereo not shown) [Compound 1.189, 2,2-dimethyl-N-prop-2-ynyl-N-[[4-[5-(trifluoromethyl)-1,2.4-oxadiazol-3-yl]phenyl]methyl]-cyclopropane-carboxamide]
≥ 80%: pest or weed control at 200 ppm [1] | pest or weed control at 200 ppm [2] | pest or weed control at 200 ppm (Phakopsora Pachyrhizi) | inhibition of growth at 20 ppm [3]

COCCC(=O)ON(Cc1ccc(-c2noc(C(F)(F)F)n2)cc1)C(=O)CCOC [Compound 1.759, [3-methoxy-propanoyl-[[4-[5-(trifluoromethyl)-1,2,4-oxadiazol-3-yl]phenyl]methyl]-amino] 3-methoxypropanoate]
≥ 80%: pest or weed control at 200 ppm [1] | pest or weed control at 200 ppm [2] | pest or weed control at 200 ppm (Phakopsora Pachyrhizi) | inhibition of growth at 20 ppm [3]

C#CCN(Cc1ccc(-c2noc(C(F)(F)F)n2)cc1)C(=O)c1ccccc1 [Compound 1.202, N-prop-2-ynyl-N-[[4-[5-(trifluoromethyl)-1,2,4-oxadiazol-3-yl]phenyl]methyl]-benzamide]
≥ 80%: pest or weed control at 200 ppm [1] | pest or weed control at 200 ppm [2] | pest or weed control at 200 ppm (Phakopsora Pachyrhizi) | inhibition of growth at 20 ppm [3]

O=C(C1CCOC1)N(Cc1ccc(-c2noc(C(F)(F)F)n2)cc1)CC1CC1 (stereo not shown) [Compound 1.215, N-(cyclopropylmethyl)-N-[[4-[5-(trifluoromethyl)-1,2,4-oxadiazol-3-yl]phenyl]methyl]-tetrahydrofuran-3-carboxamide]
≥ 80%: pest or weed control at 200 ppm [1] | pest or weed control at 200 ppm [2] | pest or weed control at 200 ppm (Phakopsora Pachyrhizi) | inhibition of growth at 20 ppm [3]

CON(Cc1ccc(-c2noc(C(F)(F)F)n2)cc1)C(=O)Cc1ccc(Cl)cc1 [Compound 1.49, 2-(4-chlorophenyl)-N-methoxy-N-[[4-[5-(trifluoromethyl)-1,2,4-oxadiazol-3-yl]phenyl]methyl]-acetamide]
≥ 80%: pest or weed control at 200 ppm [1] | pest or weed control at 200 ppm [2] | pest or weed control at 200 ppm (Phakopsora Pachyrhizi) | inhibition of growth at 20 ppm [3]

C#CCN(Cc1ccc(-c2noc(C(F)(F)F)n2)cc1)C(=O)C(C)(C)C [Compound 1.182, 2,2-dimethyl-N-prop-2-ynyl-N-[[4-[5-(trifluoromethyl)-1,2,4-oxadiazol-3-yl]phenyl]methyl]-propanamide]
≥ 80%: pest or weed control at 200 ppm [1] | pest or weed control at 200 ppm [2] | pest or weed control at 200 ppm (Phakopsora Pachyrhizi) | inhibition of growth at 20 ppm [3]

C=CCN(Cc1ccc(-c2noc(C(F)(F)F)n2)cc1)C(=O)CC [Compound 1.477, N-allyl-N-[[4-[5-(trifluoromethyl)-1,2,4-oxadiazol-3-yl]phenyl]methyl]-propanamide]
≥ 80%: pest or weed control at 200 ppm [1] | pest or weed control at 200 ppm [2] | pest or weed control at 200 ppm (Phakopsora Pachyrhizi) | inhibition of growth at 20 ppm [3]

CN(C(=O)C1CC1)C(C#N)c1ccc(-c2noc(C(F)(F)F)n2)cc1 (stereo not shown) [Compound 1.612, N-[cyano-[4-[5-(trifluoromethyl)-1,2,4-oxadiazol-3-yl]phenyl]methyl)-N-methyl-cyclopropane-carboxamide]
≥ 80%: pest or weed control at 200 ppm [1] | pest or weed control at 200 ppm [2] | pest or weed control at 200 ppm (Phakopsora Pachyrhizi) | inhibition of growth at 20 ppm [3]

CON(Cc1ccc(-c2noc(C(F)(F)F)n2)cc1)C(=O)Cc1cccnc1 [Compound 1.28, N-methoxy-2-(3-pyridyl)-N-[[4-[5-(trifluoromethyl)-1,2,4-oxadiazol-3-yl]phenyl]methyl]-acetamide]
≥ 80%: pest or weed control at 200 ppm [1] | pest or weed control at 200 ppm [2] | pest or weed control at 200 ppm (Phakopsora Pachyrhizi) | inhibition of growth at 20 ppm [3]

C#CCN(Cc1ccc(-c2noc(C(F)(F)F)n2)cc1)C(=O)C1CC1C (stereo not shown) [Compound 1.181, 2-methyl-N-prop-2-ynyl-N-[[4-[5-(trifluoromethyl)-1,2,4-oxadiazol-3-yl]phenyl]methyl]-cyclopropane-carboxamide]
≥ 80%: pest or weed control at 200 ppm [1] | pest or weed control at 200 ppm [2] | pest or weed control at 200 ppm (Phakopsora Pachyrhizi) | inhibition of growth at 20 ppm [3]

CCC(=O)N(Cc1ccc(-c2noc(C(F)(F)F)n2)c(F)c1F)OC [Compound 1.585, N-[[2,3-difluoro-4-[5-(trifluoromethyl)-1,2,4-oxadiazol-3-yl)phenyl]methyl)-N-methoxy-propanamide]
≥ 80%: pest or weed control at 200 ppm [1] | pest or weed control at 200 ppm [2] | pest or weed control at 200 ppm (Phakopsora Pachyrhizi) | inhibition of growth at 20 ppm [3]

N#CCC(=O)N(Cc1ccc(-c2noc(C(F)(F)F)n2)cc1)CC(F)(F)F [Compound 1.701, 2-cyano-N-(2,2,2-trifluoroethyl)-N-[[4-[5-(trifluoromethyl)-1,2,4-oxadiazol-3-yl]phenyl]methyl]-acetamide]
≥ 80%: pest or weed control at 200 ppm [1] | pest or weed control at 200 ppm [2] | pest or weed control at 200 ppm (Phakopsora Pachyrhizi) | inhibition of growth at 20 ppm [3]

C#CCN(Cc1ccc(-c2noc(C(F)(F)F)n2)cc1)C(=O)C1(C(F)(F)F)CC1 [Compound 1.151, N-prop-2-ynyl-1-(trifluoromethyl)-N-[[4-[5-(trifIuoromethyl)-1,2,4-oxadiazol-3-yl]phenyl]methyl]-cyclopropane-carboxamide]
≥ 80%: pest or weed control at 200 ppm [1] | pest or weed control at 200 ppm [2] | pest or weed control at 200 ppm (Phakopsora Pachyrhizi) | inhibition of growth at 20 ppm [3]

CCCN(Cc1ccc(-c2noc(C(F)(F)F)n2)cc1)C(=O)N(C)OC [Compound 3.30, 1-methoxy-1-methyl-3-propyl-3-[[4-[5-(trifluoromethyl)-1,2,4-oxadiazol-3-yl]phenyl]methyl]urea]
≥ 80%: pest or weed control at 200 ppm [1] | pest or weed control at 200 ppm [2] | pest or weed control at 200 ppm (Phakopsora Pachyrhizi) | inhibition of growth at 20 ppm [3]

O=C(C1CC1(Cl)Cl)N(Cc1ccc(-c2noc(C(F)(F)F)n2)cc1)C1CC1 (stereo not shown) [Compound 1.125, 2,2-dichloro-N-cyclopropyl-N-[[4-[5-(trifluoromethyl)-1,2,4-oxadiazol-3-yl]phenyl]methyl]-cyclopropane-carboxamide]
≥ 80%: pest or weed control at 200 ppm [1] | pest or weed control at 200 ppm [2] | pest or weed control at 200 ppm (Phakopsora Pachyrhizi) | inhibition of growth at 20 ppm [3]

COCCCC(=O)N(Cc1ccc(-c2noc(C(F)(F)F)n2)cc1)C(C)C [Compound 1.681, N-isopropyl-4-methoxy-N-[[4-[5-(trifluoromethyl)-1,2,4-oxadiazol-3-yl]phenyl]methyl]-butanamide]
≥ 80%: pest or weed control at 200 ppm [1] | pest or weed control at 200 ppm [2] | pest or weed control at 200 ppm (Phakopsora Pachyrhizi) | inhibition of growth at 20 ppm [3]

O=C(C1CCCO1)N(Cc1ccc(-c2noc(C(F)(F)F)n2)cc1)CC(F)(F)F (stereo not shown) [Compound 1.587, N-(2,2,2-Trifluoroethyl)-N-[[4-[5-(Trifluoromethyl)-1,2,4-Oxadiazol-3-yl]Phenyl]Methyl]Tetrahydrofuran-2-Carboxamide]
≥ 80%: pest or weed control at 200 ppm [1] | pest or weed control at 200 ppm [2] | pest or weed control at 200 ppm (Phakopsora Pachyrhizi) | inhibition of growth at 20 ppm [3]

Reference: patent publication US11180462B2, “Microbiocidal oxadiazole derivatives” (SYNGENTA PARTICIPATIONS AG, priority 2015, dated 2021)
